Experimental data reported in patent publication US4338122A, “Biocidal 2-aryl-1,3-cyclopentanedione compounds and alkali metal and ammonium salts thereof” (Union Carbide Corporation, priority 1980, dated 1982).

Assays:
Bean = test: Post-emergent herbicidal test, bean; type: in vivo; design: key: 1: no perceptible injury; 2: intermediate degrees of injury based upon the number and extent to which leaves were injured; 3: intermediate degrees of injury based upon the number and extent to which leaves were injured; 4: intermediate degrees of injury based upon the number and extent to which leaves were injured; 5: the plant was dead; conditions: 2500 parts per million, after ten days
Method: (§1) Suspensions of the test compounds were prepared by dissolving one gram of compound in 50 milliliters of acetone in which had been dissolved 0.1 gram (10 percent of the weight of compound) of an alkylphenoxyethoxyethanol surfactant, as an emulsifying or dispersing agent. The resulting solution was mixed into 160 milliliters of water to give roughly 200 milliliters of a suspension containing the compound in finely divided form. The thus prepared stock suspension contained 0.5 percent by weight of compound. The test concentrations employed in the tests described herein below were obtained by diluting the stock suspension with water. The test procedures were as follows:
(§2) Experiments were also conducted to determine the phytotoxicity of representative compositions with respect to healthy fresh plants. Solutions of the compounds were prepared as described above to provide a concentration of 2500 parts per million of the test compound. The test plants were sprayed in accordance with the procedure described above for the Mite Foliage Spray Test so as to deliver approximately 100 milliliters of test solutions to the leaves of each plant tested. The sprayed plants and controls were set aside for approximately one hour to allow the solutions to dry and were then placed in the greenhouse. After ten days the plants were visually inspected to determine the extent of foliage injury. A rating of 1 indicates no perceptible injury; 5 indicates the plant was dead and ratings of 2, 3 and 4 indicate intermediate degrees of injury based upon the number and extent to which leaves were injured.
(§3) Tests were conducted in accordance with the procedures given at pages 32 to 37 supra. The results are expressed in the same manner as used in Table I, except with respect to miticidal activity. For mite adult and mite egg comparison purposes, results are given in parts per million (ppm) required for a 50 percent kill of mites or eggs, respectively.

Corn = test: Post-emergent herbicidal test, corn; type: in vivo; design: key: 1: no perceptible injury; 2: intermediate degrees of injury based upon the number and extent to which leaves were injured; 3: intermediate degrees of injury based upon the number and extent to which leaves were injured; 4: intermediate degrees of injury based upon the number and extent to which leaves were injured; 5: the plant was dead; conditions: 2500 parts per million, after ten days
Method: as §1, §2, §3

Cotton = test: Post-emergent herbicidal test, cotton; type: in vivo; design: key: 1: no perceptible injury; 2: intermediate degrees of injury based upon the number and extent to which leaves were injured; 3: intermediate degrees of injury based upon the number and extent to which leaves were injured; 4: intermediate degrees of injury based upon the number and extent to which leaves were injured; 5: the plant was dead; conditions: 2500 parts per million, after ten days
Method: as §1, §2, §3

Perennial rye grass = test: Preliminary herbicide seed germination test (pre-emergent), rye grass; type: in vivo, Solium perenne; design: key: 5: no seedling emerged; 4: few seedlings emerged and/or very severe stunting; 3: moderate reduction in stand and/or moderate stunting; 2: very slight reduction in stand and/or slight stunting; 1: no injury; seedlings appear no different with respect to stand or growth than untreated controls; conditions: ten to twelve days after application
Method: as §1
(§4) The following seeds were used in this test:
Perennial rye grass--Solium perenne
(§5) Two soil-seed mixtures were prepared as follows:
(§6) Each of the above mixtures was rolled separately in 5 gallon containers for approximately one-half hour on ball mill to insure uniform mixing of seeds and soil. For each compound four 3-inch pots were filled with soil to within 11/2 inches of top of pots. To two of these pots were added 70 cc. of Mixture I. To the remaining 2 pots were added 70 cc. of Mixture II. The seed-soil mixture was tamped firmly, and the pots were removed to the green-house and watered lightly. About 2 hours after planting, 25 milliliters of the test formulation were added to one pot containing Mixture I and one pot containing Mixture II. An equal volume of a water solution containing acetone and an emulsifier in the same concentration as the herbicidal mixture but without the candidate herbicide was also added to each of the soil-seed mixtures. These pots are used as check or control units. The test compounds were formulated by diluting the stock suspension with water to obtain the desired concentration of the compound in parts per million of the final formulation. Each compound was tested at the same concentration. […] Ratings were made according to the following designations:
as §3

Crabgrass = test: Preliminary herbicide seed germination test (pre-emergent), crabgrass; type: in vivo, Digitaria sanguinalis; design: key: 5: no seedling emerged; 4: few seedlings emerged and/or very severe stunting; 3: moderate reduction in stand and/or moderate stunting; 2: very slight reduction in stand and/or slight stunting; 1: no injury; seedlings appear no different with respect to stand or growth than untreated controls; conditions: ten to twelve days after application
Method: as §1, §4
Crabgrass--Digitaria sanguinalis
as §5, §6, §3

[1] = test system: Red root pigweed (Amaranthus); test: Preliminary herbicide seed germination test (pre-emergent), Amaranthus; type: in vivo, Amaranthus retroflexus; design: key: 5: no seedling emerged; 4: few seedlings emerged and/or very severe stunting; 3: moderate reduction in stand and/or moderate stunting; 2: very slight reduction in stand and/or slight stunting; 1: no injury; seedlings appear no different with respect to stand or growth than untreated controls; conditions: ten to twelve days after application
Method: as §1, §4
Red root pigweed--Amaranthus retroflexus
as §5, §6, §3

Mustard = test: Preliminary herbicide seed germination test (pre-emergent), mustard; type: in vivo, Brassica pincea var. foliosa (Florida broadleaf); design: key: 5: no seedling emerged; 4: few seedlings emerged and/or very severe stunting; 3: moderate reduction in stand and/or moderate stunting; 2: very slight reduction in stand and/or slight stunting; 1: no injury; seedlings appear no different with respect to stand or growth than untreated controls; conditions: ten to twelve days after application
Method: as §1, §4
Mustard--Brassica pincea var. foliosa (Florida broadleaf)
as §5
as §6, with “designations: […]” for “designations:”

Row | Structure (SMILES) | Post-Emergent Herbicidal, Bean (injury rating) (Bean; Table I) | Post-Emergent Herbicidal, Bean (injury rating) (Bean; Table II) | Post-Emergent Herbicidal, Corn (injury rating) (Corn; Table I) | Post-Emergent Herbicidal, Corn (injury rating) (Corn; Table II) | Post-Emergent Herbicidal, Cotton (injury rating) (Cotton; Table I) | Post-Emergent Herbicidal, Cotton (injury rating) (Cotton; Table II) | Pre-emergent Herbicidal, Rye (injury rating) (Perennial rye grass; Table I) | Pre-emergent Herbicidal, Rye (injury rating) (Perennial rye grass; Table II) | Pre-emergent Herbicidal, Crabgrass (injury rating) (Crabgrass; Table I) | Pre-emergent Herbicidal, Crabgrass (injury rating) (Crabgrass; Table II) | Pre-emergent Herbicidal, Amaranthus (injury rating) ([1]; Table I) | Pre-emergent Herbicidal, Amaranthus (injury rating) ([1]; Table II) | Pre-emergent Herbicidal, Mustard (injury rating) (Mustard; Table I) | Pre-emergent Herbicidal, Mustard (injury rating) (Mustard; Table II)
1 | Cc1ccc(C2C(=O)C3CCCCC3C2=O)c(C)c1 (stereo not drawn) [CH3 CH3 H (CH2)4, 2-(2',4'-dimethylphenyl)-4,5,6,7,8,9-hexahydro-1,3-indandione] | 1 | 1 | 2 | 2 | 2 | 2 | 5 | 5 | 5 | 5 | 5 | 5 | 5 | 5
2 | Cc1ccc(C2C(=O)CCC2=O)c(C)c1 [CH3 CH3 H H H, 2-(2',4'-dimethylphenyl)-1,3-cyclopentanedione] | 1 | 1 | 2 | 2 | 1 | 1 | 5 | 5 | 5 | 5 | 5 | 5 | 3 | 3
3 | Cc1ccc(C)c(C2C(=O)C3CCCCC3C2=O)c1 (stereo not drawn) [CH3 H CH3 (CH2)4, 2-(2',5'-dimethylphenyl)-4,5,6,7,8,9-hexahydro-1,3-indandione] | 1 | 1 | 1 | 1 | 1 | 1 | 1 | 1 | 1 | 1 | 1 | 1 | 1 | 1
4 | Cc1ccc(C)c(C2C(=O)CC(C)C2=O)c1 (stereo not drawn) [CH3 H CH3 CH3 H, 2-(2',5'-Dimethylphenyl)-4-methyl-1,3-cyclopentanedione] | 2 |  | 3 |  | 2 |  | 4 |  | 2 |  | 3 |  | 2 | 
5 | Cc1ccc(C)c(C2C(=O)CCC2=O)c1 [CH3 H CH3 H H] | 2 |  | 2 |  | 2 |  | 4 |  | 2 |  | 3 |  | 2 | 
6 | Cc1ccccc1C1C(=O)C2CCCCC2C1=O (stereo not drawn) [CH3 H H (CH2)4, 2-(2'-Methylphenyl)-4,5,6,7,8,9-hexahydro-1,3 indandione] | 2 | 2 | 2 | 2 | 3 | 3 | 5 | 5 | 3 | 3 | 3 | 3 | 2 | 2
7 | Cc1ccccc1C1C(=O)CCC1=O [CH3 H H H H, 2-(2'-methylphenyl)-1,3-cyclopentanedione] | 3 | 3 | 3 | 3 | 3 | 3 | 5 | 5 | 2 | 2 | 1 | 1 | 1 | 1
8 | O=C1CCC(=O)C1c1ccc(Cl)cc1Cl [Cl Cl H H H, 2-(2',4'-Dichlorophenyl)-1,3-cyclopentanedione] | 1 |  | 1 |  | 2 |  | 1 |  | 1 |  | 1 |  | 1 | 
9 | O=C1CCC(=O)C1c1ccccc1Cl [Cl H H H H] | 3 |  | 2 |  | 2 |  | 5 |  | 3 |  | 1 |  | 3 | 
10 | Cc1ccccc1C1C(=O)c2ccccc2C1=O [Reference I Page 3, Compound 1, reference compound] |  | 2 |  | 1 |  | 1 |  | 1 |  | 2 |  | 2 |  | 1
